Assay results published in ChEMBL document CHEMBL5042541 (J Med Chem, 2022).

Assays:
[1] = biological target: Keap1/Nrf2 (Homo sapiens, UniProt Q14145)
[2] = Lipophilicity, logD of compound at pH 7.5; type: physicochemical; details: buffer

Sequence of Keap1/Nrf2 (Q16236 whole entry): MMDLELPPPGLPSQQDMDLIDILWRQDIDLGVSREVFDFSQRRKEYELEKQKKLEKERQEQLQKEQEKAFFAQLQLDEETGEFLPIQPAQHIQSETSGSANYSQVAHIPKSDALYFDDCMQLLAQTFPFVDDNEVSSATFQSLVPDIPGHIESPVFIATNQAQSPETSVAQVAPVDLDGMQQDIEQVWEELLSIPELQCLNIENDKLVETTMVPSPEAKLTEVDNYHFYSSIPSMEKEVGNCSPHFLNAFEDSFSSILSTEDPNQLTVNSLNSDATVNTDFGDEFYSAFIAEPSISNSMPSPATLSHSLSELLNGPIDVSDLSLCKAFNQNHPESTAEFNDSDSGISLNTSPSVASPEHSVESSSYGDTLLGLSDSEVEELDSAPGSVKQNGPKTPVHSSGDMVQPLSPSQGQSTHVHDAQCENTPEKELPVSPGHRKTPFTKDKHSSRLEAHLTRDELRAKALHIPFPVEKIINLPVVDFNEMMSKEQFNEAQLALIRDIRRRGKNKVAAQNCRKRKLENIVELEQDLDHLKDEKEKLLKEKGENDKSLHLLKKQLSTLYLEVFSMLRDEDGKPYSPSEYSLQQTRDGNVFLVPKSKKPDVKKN
Sequence of Keap1/Nrf2 (Q14145 whole entry): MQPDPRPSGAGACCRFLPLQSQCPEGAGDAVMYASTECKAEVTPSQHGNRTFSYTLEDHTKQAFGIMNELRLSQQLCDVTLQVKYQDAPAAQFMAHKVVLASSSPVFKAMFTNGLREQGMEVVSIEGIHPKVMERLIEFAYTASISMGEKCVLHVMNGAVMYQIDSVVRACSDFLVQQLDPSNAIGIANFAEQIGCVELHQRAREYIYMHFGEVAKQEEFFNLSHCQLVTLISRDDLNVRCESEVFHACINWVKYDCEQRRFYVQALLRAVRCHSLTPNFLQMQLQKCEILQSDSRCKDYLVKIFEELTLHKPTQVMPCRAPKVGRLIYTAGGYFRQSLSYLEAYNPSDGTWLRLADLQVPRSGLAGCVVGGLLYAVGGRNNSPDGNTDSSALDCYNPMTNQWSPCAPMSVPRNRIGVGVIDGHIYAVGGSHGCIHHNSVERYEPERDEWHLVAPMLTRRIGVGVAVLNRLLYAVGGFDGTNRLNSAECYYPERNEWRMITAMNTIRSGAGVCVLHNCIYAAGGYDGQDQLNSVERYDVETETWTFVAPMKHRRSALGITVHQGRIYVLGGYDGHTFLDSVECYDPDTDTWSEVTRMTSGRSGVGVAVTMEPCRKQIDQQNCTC

**Q.** With `CC(=O)N1CCC[C@H]1C(=O)N[C@@H]1CNC(=O)c2ccccc2COC[C@H](C(=O)N(C)C)NC1=O` as the compound, how does the Kd [1] read?
**A.** > 500 µM

**Q.** With `CC(=O)N1CCC[C@H]1C(=O)N[C@@H]1COC(=O)c2ccccc2CSC[C@H](C(=O)N(C)C)NC1=O` as the compound, how does the logD [2] read?
**A.** 0.43
